Experiments:
[1] = molecular target: ActRIIB (Homo sapiens, UniProt Q13705); test: ActRIIB inhibitory activity, ADP-Glo assay kit; type: biochemical; conditions: ATP 25 μM, substrate 0.1 mg/mL, ActRIIB 20.0 ng/μL
Experimental: The ATP and substrate concentrations recommended by the ADP-Glo™ assay kit were used, which were 25 μM and 0.1 mg/mL, respectively, and a series of isocratic final ActRIIB concentrations were set up, which were 0, 0.47, 0.94, 1.88, 3.75, 7.5, 15, 30, and 60 ng/μL, respectively. According to the […] values obtained in the experiment, an ActRIIB concentration titration curve was drawn. The ActRIIB concentrations corresponding to the ratio of the signal value to the background value (i.e., signal-to-background ratio, SBR) in the range of 5-10 times are suitable for screening compounds for inhibition of ActRIIB activity. From the ActRIIB concentration titration curve, the final ActRIIB concentrations corresponding to SB5 and SB10 were calculated to be 14.9 and 23.7 ng/μL, respectively. Finally, a final concentration of 20.0 ng/μL was selected as the experimental concentration for screening compounds for their inhibitory activity against ActRIIB. The inhibitory efficiency of 7-azaindole compounds on ActRIIB was detected at concentrations of 0.1, 1, 10, and 100 nM, respectively.

[2] = tested on: C26 tumor cancer cachexia model, BALB/c mice; test: Cancer cachexia animal model, compound 2 (C26 tumor, BALB/c mice, 5 mg/kg ig); type: in vivo, mouse; conditions: 5 mg/kg ig daily
Experimental: C26 cells were inoculated in T75 flasks. The culture system was 1640 medium containing 10% FBS with 1% penicillin-streptomycin. The flasks were placed in a 5% CO2, 37° C. environment for expansion culture. The cells were collected by centrifugation at 1000 rpm for 3 mins, and the culture medium was washed away with ice-cold PBS buffer, and a cell suspension of 10 million/ml was prepared. The cell suspension was inoculated into the left and right armpits of BALB/c mice at a concentration of 1 million for tumor development. When the tumor volume increased to 1000 mm^3, the tumor was removed and homogenized with 3 ml of ice saline/g to obtain a tumor tissue suspension. The mice to be inoculated were divided into groups according to their weight, and the cell suspension was inoculated into the left armpit of Balb/c mice at an inoculation volume of 100 μl per mouse. Treatment was started from the day after inoculation. Compound 2 was dissolved in 3% DMSO, 2% Solutol and 95% saline in sequence to form a uniform solution with the required concentration. The solution was prepared and used daily. The dose was 5 mg/kg and the compound was administered by the intragastric (ig) route. The body weight, temperature, tumor size and food intake of mice were monitored daily. […] When the tumor volume of mice in the model group reached 2.0× 103 mm^3 or their body weight decreased by 10%, they were considered to have entered the cachexia stage. The muscle grasp force of the mice's forelimbs was tested at these two stages. […] At the end of the experiment, the mice were killed by cervical dislocation and the gastrocnemius, tibialis anterior, right hind limb and tumor samples were obtained, and the sample weights were measured.
(§1) The method for detecting muscle grasp force was as follows: The muscle grasp force of mice was tested on the 5th day (pre-cachexia stage) and the 22nd day (cachexia stage) of the experiment. The mouse was steadily placed on the YLS-13A Mouse and Rat Grasp Force Tester by using the right hand, so that its forelimbs could tightly grasp the gripping disk, and the gripping disk was stabilized by using the left hand moving forward. When the left hand slowly released the gripping disk, the right hand immediately and slowly pulled the mouse's tail backwards until its forelimbs were separated from the gripping disk. The test was repeated 8 times for each mouse, and the mean value of the 8 measurements was used as the skeletal muscle strength index of each mouse.

[3] = tested on: mouse myoblasts (C2C12); test: Atrophy of mouse myoblasts (C2C12) induced by C26 cell supernatant, myotube diameter by HE staining; type: cell-based; conditions: Mus musculus, 48 hours treatment, C26 supernatant-induced C2C12 myotubes, read-out: Myotube atrophy reversal rate
Experimental: C2C12 cells were inoculated in 24-well plates. The culture system was high-glucose DMEM medium containing 10% FBS with 1% penicillin-streptomycin. The plates were placed in a 5% CO2, 37° C. environment. When the cell growth density reached 50%-60%, the culture system was replaced with high-glucose DMEM culture medium containing 2% HS with 1% penicillin-streptomycin. Fresh 2% HS differentiation medium was replaced every 48 hours, and the cells were differentiated into mature cells on the 5th or 6th day. Additionally, C26 cells were inoculated in T75 flasks. The culture system was high-glucose DMEM medium containing 10% FBS with 1% penicillin-streptomycin. The flasks were placed in a 5% CO2, 37° C. environment. When subculturing, the cells were subcultured at 6 million cells/flask. After culturing in 20 ml of culture medium for 48 hours, the supernatant was collected and centrifuged at 1000 rpm for 3 mins. The supernatant was collected and centrifuged at 4000 rpm for 10 mins to obtain the C26 supernatant. The C26 supernatant and 2% HS differentiation solution were mixed at a ratio of 1:1 (volume ratio) as the muscle atrophy induction solution. Except for the control group in which 2% HS differentiation solution was added, for the other groups, an equivalent amount of muscular atrophy induction solution was added. One group was used as the model group, and the other groups were used as the treatment and experimental groups.
The diameter of myotubes after differentiation of mouse myoblasts (C2C12) was evaluated by using the diameter measurement method. The method for measuring the diameter of myotubes was as follows: after 48 hours of treatment, the myotubes were fixed with a fixative (anhydrous ethanol: formaldehyde: glacial acetic acid (volume ratio)=20:2:1) for more than 1 h and stained. The staining method used in the experiment is hematoxylin-eosin staining, referred to as HE staining for short. Hematoxylin stain is alkaline and positively charged, and it can easily bind to the negatively charged and acidic deoxyribonucleic acid (DNA) in the cell nucleus through ionic bonds to stain it blue; eosin is an acidic dye that dissociates into negatively charged anions in water, and it can easily bind to the positively charged amino groups of proteins in the cytoplasm to stain it red. The stained cells were placed under a high-power microscope to take pictures (magnification: 200 times), and the diameter of myotube cells was statistically analyzed using image J software. The muscle atrophy reversal rate was calculated according to the following formula: Muscle atrophy reversal rate=(average value of myotubes in the treatment group-average value of myotubes in the model group)/(average value of myotubes in the control group-average value of myotubes in the model group)×100%

[4] = tested on: C26 tumor cancer cachexia model, BALB/c mice; test: Cancer cachexia animal model, compounds 3 and 10 (C26 tumor, BALB/c mice, 10 mg/kg ip); type: in vivo, mouse; conditions: 10 mg/kg ip daily; for Cross-sectional area of gastrocnemius fibers: H&E sections; for Muscle grasp force: p<0.05
Experimental: C26 cells were inoculated in T75 flasks. The culture system was 1640 medium containing 10% FBS with 1% penicillin-streptomycin. The flasks were placed in a 5% CO2, 37° C. environment for expansion culture. The cells were collected by centrifugation at 1000 rpm for 3 mins, and the culture medium was washed away with ice-cold PBS buffer, and a cell suspension of 10 million/ml was prepared. The cell suspension was inoculated into the left and right armpits of BALB/c mice at a concentration of 1 million for tumor development. When the tumor volume increased to 1000 mm^3, the tumor was removed and homogenized with 3 ml of ice saline/g to obtain a tumor tissue suspension. The mice to be inoculated were divided into groups according to their weight, and the cell suspension was inoculated into the left armpit of BALB/c mice at an inoculation volume of 100 μl per mouse. Treatment was started from the day after inoculation. Compounds 3 and 10 were dissolved in 3% DMSO, 2% Solutol and 95% saline in sequence to form a uniform solution with the required concentration. The solution was prepared and used daily. The dose was 10 mg/kg and the compound was administered by intraperitoneal injection (ip). The body weight, temperature, tumor size and food intake of mice were monitored daily. […] In the middle stage of the experiment, the weight of the mice in the model group began to decrease, which was considered to have entered the mid-cachexia stage. When the tumor volume of the mice in the model group reached 2.0× 103 mm^3 or their body weight decreased by 10%, they were considered to have entered the late-cachexia stage. The muscle grasp force of the mice's forelimbs was tested at these three stages. At the end of the experiment, the mice were killed by cervical dislocation and the gastrocnemius, tibialis anterior, right hind limb and tumor samples were obtained, and the sample weights were measured. Gastrocnemius tissue of appropriate size was obtained, and H&E stained tissue sections were prepared through processes such as fixation, embedding, slicing, staining. At least 10 fields of view were randomly selected for slices of different groups for photographing, and the cross-sectional areas of all muscle fibers in the photographs were measured and statistically analyzed.
as §1, with “3rd” for “5th”, “(pre-cachexia stage), the 11th day (mid-cachexia” for “(pre-cachexia”, “16th” for “22nd”, “(late-cachexia” for “(cachexia”

Sequence of ActRIIB (Q13705 19-512): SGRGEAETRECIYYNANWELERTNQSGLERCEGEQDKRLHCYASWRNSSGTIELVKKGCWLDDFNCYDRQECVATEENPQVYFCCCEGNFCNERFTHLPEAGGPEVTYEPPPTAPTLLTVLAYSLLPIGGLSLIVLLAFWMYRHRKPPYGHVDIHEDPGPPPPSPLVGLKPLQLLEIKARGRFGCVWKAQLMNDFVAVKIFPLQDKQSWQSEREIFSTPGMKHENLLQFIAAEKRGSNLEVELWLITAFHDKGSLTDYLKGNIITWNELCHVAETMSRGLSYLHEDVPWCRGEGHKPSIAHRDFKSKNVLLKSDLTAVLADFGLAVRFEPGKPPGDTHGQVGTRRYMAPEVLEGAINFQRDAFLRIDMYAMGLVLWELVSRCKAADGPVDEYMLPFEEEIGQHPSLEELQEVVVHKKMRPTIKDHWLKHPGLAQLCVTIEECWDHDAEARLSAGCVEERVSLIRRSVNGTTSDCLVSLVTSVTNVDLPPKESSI

SMILES | IC50 [1] [nM] | Average accumulative food intake vs C26 tumor model group [2] | Right hind limb weight (skeletal muscle atrophy) [2] | Tumor volume vs C26 tumor model group [2] | Muscle grasp force ([2]; cachexia stage, p=0.06) | Gastrocnemius mass (gastrocnemius atrophy) ([2]; p<0.05) | Tibialis anterior mass (tibialis anterior atrophy) ([2]; p<0.05) | Weight loss (tumor-bearing and tumor-free body weight) vs C26 tumor model group ([2]; p<0.05 at end of experiment) | inhibition at 1.25 µM [3] [%] | inhibition at 2.5 µM [3] [%] | inhibition at 5 µM [3] [%] | Average accumulative food intake vs C26 tumor model group [4] | Gastrocnemius atrophy (muscle mass) [4] | Right hind limb weight (skeletal muscle atrophy) [4] | Tibialis anterior atrophy (muscle mass) [4] | Tumor volume vs C26 tumor model group [4] | Weight loss (tumor-bearing and tumor-free body weight) vs C26 tumor model group [4] | Cross-sectional area of gastrocnemius fibers [4] | Muscle grasp force [4]
CN1CCN(c2ccc(-c3cnc4[nH]cc(-c5cc[nH]n5)c4c3)cc2)CC1 [Compound 2, 3-(1H-pyrazol-3-yl)-5-[4-(4-methylpiperazin-1-yl)phenyl]-1H-pyrrolo[2,3-b]pyridine] | 1.8 | slightly higher than that in the C26 tumor model group | improve skeletal muscle atrophy in cachectic mice to a certain extent | slightly reduced compared with the C26 tumor model group, but there was no significant difference | significantly enhance the muscle grasp force of cachexia mice | significantly alleviate the gastrocnemius atrophy in cachectic mice | significantly alleviate the tibialis anterior atrophy in cachectic mice | significantly alleviate the weight loss of mice | 69.2 | 97.6 | 131 |  |  |  |  |  |  |  | 
CN1CCN(c2ccc(-c3cnc4[nH]cc(-c5ccc6[nH]ccc6c5)c4c3)cc2)CC1 [Compound 3, 3-(1H-indol-5-yl)-5-[4-(4-methylpiperazin-1-yl)phenyl]-1H-pyrrolo[2,3-b]pyridine] | 1.1 |  |  |  |  |  |  |  |  | 90.9 |  | slightly higher than that in the C26 tumor model group | cannot significantly alleviate the gastrocnemius atrophy in cachectic mice | improve skeletal muscle atrophy in cachectic mice to a certain extent | cannot significantly alleviate the tibialis anterior atrophy in cachectic mice | slightly reduced compared with the C26 tumor model group, but there was no significant difference | alleviate the weight loss of mice to some extent | significantly alleviate the reduction in the cross-sectional area of the gastrocnemius in cachectic mice | significantly enhance the muscle grasp force of cachexia mice
c1cc(-c2c[nH]c3ncc(-c4ccc(OCCN5CCOCC5)cc4)cc23)n[nH]1 [Compound 10, 3-(1H-pyrazol-3-yl)-5-(4-[[2-(1,4-oxazacyclohexan-4-yl)ethyl]oxy]phenyl)-1H-pyrrolo[2,3-b]pyridine] | 4 |  |  |  |  |  |  |  | 42.4 | 58.9 | 100 | slightly higher than that in the C26 tumor model group | cannot significantly alleviate the gastrocnemius atrophy in cachectic mice | improve skeletal muscle atrophy in cachectic mice to a certain extent | cannot significantly alleviate the tibialis anterior atrophy in cachectic mice | slightly reduced compared with the C26 tumor model group, but there was no significant difference | significantly alleviate the weight loss of mice | significantly alleviate the reduction in the cross-sectional area of the gastrocnemius in cachectic mice | significantly enhance the muscle grasp force of cachexia mice

From US20260193255A1, “7-AZAINDOLE COMPOUNDS, PREPARATION METHOD THEREFOR, AND USE THEREOF” (Fudan University, priority 2022, published 2026)
